Assay results reported in patent publication US20030100550A1, “Carboxamide diazepin derivatives, preparation method, use as medicines, pharmaceutical compositions and use thereof” (priority 2002, published 2003).
pIC50: −log10 of the molar value.

Tests used:
Format in all cases: biochemical
Papain = molecular target: T1, Papain (Carica papaya, UniProt P00784); test: Study of Papain inhibition (fluorescence); conditions: for Papain, percentage in parentheses beside IC50 value (% inhibition): printed beside 20 μM, meaning not explained; for pIC50: enzyme 20 ng/ml, 30 minutes at ambient temperature
T1 construct: purchased Sigma
T1 sequence (P00784 134-345): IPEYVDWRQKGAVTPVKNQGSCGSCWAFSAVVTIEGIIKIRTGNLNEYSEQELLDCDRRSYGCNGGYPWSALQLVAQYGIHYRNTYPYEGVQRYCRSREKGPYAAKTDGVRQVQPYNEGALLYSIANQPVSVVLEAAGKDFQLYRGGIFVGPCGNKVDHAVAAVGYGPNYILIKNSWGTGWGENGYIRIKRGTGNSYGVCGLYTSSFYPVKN
Procedure: (§1) The products to be tested (10 mM) are diluted to […] in DMSO and distributed into Nunc polystyrene 96 well plates at a rate of 2 μl per well. Column 12 of the plate is reserved for the controls and therefore receives […] of DMSO (without products) per well. The plates are stored at −80° C. and thawed on the day of the experiment.
(§2) The products are diluted to 50 μM by adding 38 μl of reaction buffer: sodium acetate 100 mM, EDTA 5 mM, DTT […] pH 5.5. The addition as well as all the operations by pipette are carried out with a CybiWell 96 tip pipette. After mixing the solutions, each product is transferred into 2 wells (duplicates) of a Greiner black 384 well plate at a rate of 10 μl per well. Two 96-well plates can therefore be tested in a 384-well plate.
(§3) A solution of substrate at 50 μM, Z-Val-arg-AMC (Calbiochem), is prepared in the reaction buffer. The substrate, is then distributed into all the wells of the 384-well plate (20 μl per well).
(§4) A solution of Cathepsin K at 12.5 ng/ml is prepared in the reaction buffer and distributed into all the wells of the 384-well plate (20 μl per well) except for the 16 wells serving as 100% inhibition controls (column 23 and 24, lines I to P) which receive 20 μl of enzyme-free buffer.
(§5) The plates are then incubated 2H at ambient temperature, then read on Fluoroskan (Labsystems): excitation 390 nm; emission 460 nm
(§6) The final concentrations of each of the reagents are: products 10 μM, substrate 20 μM, enzyme 5 ng/ml.
(§7) The % inhibition for each of the products is calculated by using points at 0 and 100% inhibition of each plate as references. The products presenting a significant inhibition are then retested on a range of concentrations from 50 to 0.5 μM to determine an IC50.
Study of Papain Inhibition:
(§8) Protocol identical to that of Cathepsin K except for:
Papain (Sigma), solution at 50 ng/ml, final concentration 20 ng/ml
Incubation for 30 minutes at ambient temperature

Cathepsin B = molecular target: T2, Cathepsin B (Homo sapiens, UniProt P07858); test: Study of Cathepsin B inhibition (fluorescence, Z-arg-arg-AMC); conditions: for pIC50: substrate Z-arg-arg-AMC 20 μM, enzyme 16 ng/ml, 1 hour at ambient temperature; for Cathepsin B, percentage in parentheses beside IC50 value (% inhibition): printed beside 20 μM, meaning not explained
T2 construct: purchased Calbiochem
Procedure: as §1, §2, §3, §4, §5, §6, §7
Study of Cathepsin B Inhibition:
as §8
Z-arg-arg-AMC substrate (Calbiochem), solution at 50 μM, final concentration 20 μM
Cathepsin B (Calbiochem), solution at 40 ng/ml, final concentration 16 ng/ml
Incubation for 1 hour at ambient temperature

Cathepsin K = molecular target: T3, Cathepsin K (Homo sapiens, UniProt P43235); test: Study of Cathepsin K inhibition (fluorescence, Z-Val-arg-AMC); conditions: substrate Z-Val-arg-AMC 20 μM, enzyme 5 ng/ml, 2H at ambient temperature; read-out: Cathepsin K IC50
T3 sequence (P43235 115-329): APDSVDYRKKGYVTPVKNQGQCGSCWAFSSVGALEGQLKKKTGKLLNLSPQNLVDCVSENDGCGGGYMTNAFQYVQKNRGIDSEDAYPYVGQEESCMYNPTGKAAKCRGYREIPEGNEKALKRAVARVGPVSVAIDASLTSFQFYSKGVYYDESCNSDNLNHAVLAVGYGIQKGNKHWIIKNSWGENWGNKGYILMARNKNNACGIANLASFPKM
Procedure, shortened: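 Recombinant cathepsin K (5 ng/ml final) with 20 μM Z-Val-Arg-AMC in 100 mM sodium acetate, 5 mM EDTA, DTT, pH 5.5; compounds screened at 10 μM in duplicate, 2 h at ambient temperature, fluorescence ex 390/em 460 nm. % inhibition vs plate 0/100% controls; actives retested 50–0.5 μM for IC50.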

**Q.** How did the “Papain, percentage in parentheses beside IC50 value (% inhibition)” value (Papain) turn out when `C=CCOC(=O)CC[C@H](NC(=O)[C@@H]1CCCN2C(=O)CCC[C@H](NC(=O)NC3CCCCC3)C(=O)N12)C(=O)COC(=O)c1c(Cl)cccc1Cl` [Example 122, (2-propenyl)(4S)6-[(2,6-dichlorobenzoyl)oxy]-4-[[[(1S,9S)-9-[[(cyclohexylamino)carbonyl]amino]-octahydro-6,10-dioxo-o-6H-pyridazino[1,2-a][1,2]diazepine-1-yl]carbonyl]amino]-5-oxo-hexanoate] was run?
**A.** The value was 45%.

**Q.** What about the pIC50 (Cathepsin B) of the same molecule?
**A.** Its pIC50 is 6.15.

**Q.** What about the pIC50 (Cathepsin K) of the same molecule?
**A.** Its pIC50 is 4.74.

**Q.** What does the source list for `O=C(NCCc1cccs1)N[C@H]1CCC(=O)N2CCC[C@@H](C(=O)N[C@@H](Cc3ccccc3)C(=O)COC(=O)c3c(Cl)cccc3Cl)N2C1=O` [Example 224, 9-[(9S)-[[[2-(thien-2-yl)-ethyl]amino]carbonyl]amino]-N-[(2S)-1-phenyl-4-[(-2,6-dichlorobenzoyl)oxy]-3-oxo-2-butyl]-octahydro-6,10-dioxo-6H-(1S)-pyridazino[1,2-a][1,2]diazepine-1-carboxamide]?
**A.** pIC50 (Papain): 5.10; pIC50 (Cathepsin B): 5.05; pIC50 (Cathepsin K): 4.70

**Q.** With `C=CCOC(=O)CC[C@H](NC(=O)[C@@H]1CCCN2C(=O)CC[C@H](NC(=O)Nc3ccc(Oc4ccccc4)cc3)C(=O)N12)C(=O)COC(=O)Cc1ccsc1` [Example 134, (2-propenyl)(4S)6-[1-oxo-2-(thien-3-yl)ethoxy]-4-[[[(1S,9S)-9-[[[(4-phenoxyphenyl)amino]carbonyl]amino]-octahydro-6,10-dioxo-6H-pyridazino[1,2-a][1,2]diazepine-1-yl]carbonyl]amino]-5-oxo-hexanoate] as the molecule, how does the pIC50 (Papain) read?
**A.** Its pIC50 is 5.15.

**Q.** And the pIC50 (Cathepsin K)?
**A.** The pIC50 was 4.70.

**Q.** How did the pIC50 (Papain) turn out when `C[C@H](NC(=O)[C@@H]1CCCN2C(=O)CC[C@H](NC(=O)Nc3ccc(Oc4ccccc4)cc3)C(=O)N12)C(=O)CSc1nc2ccccc2s1` [Example 450, 9-[(9S)-[[(4-phenoxyphenyl)amino]carbonyl]amino]-N-[(2S)-4-[(benzothiazol-2-yl)thio]-3-oxo-2-butyl]-octahydro-6,10-dioxo-6H-(1S)-pyridazino[1,2-a][1,2]diazepine-1-carboxamide] was run?
**A.** The pIC50 was 4.74.

**Q.** And the pIC50 (Cathepsin K)?
**A.** Its pIC50 is 4.70.

**Q.** `C=CCOC(=O)CC[C@H](NC(=O)[C@@H]1CCCN2C(=O)CC[C@H](NC(=O)Nc3ccc(Oc4ccccc4)cc3)C(=O)N12)C(=O)CSc1nnnn1-c1ccccc1` [Example 128, (2-propenyl)(4S)6-[(1-phenyl-1H-tetrazol-5-yl)thio]-4-[[[(1S,9S)-9-[[[(4-phenoxyphenyl)amino]carbonyl]amino]-octahydro-6,10-dioxo-6H-pyridazino[1,2-a][1,2]diazepine-1-yl]carbonyl]amino]-5-oxo-hexanoate] was tested. Which pIC50 (Papain) did it give?
**A.** The pIC50 was 5.22.

**Q.** And the pIC50 (Cathepsin K)?
**A.** Its pIC50 is 4.70.

**Q.** `CC(C)[C@H](NC(=O)[C@@H]1CCCN2C(=O)CC[C@H](NC(=O)Nc3ccc(Oc4ccccc4)cc3)C(=O)N12)C(=O)CSc1nc2ccccc2s1` [Example 390] was tested. Which pIC50 (Papain) did it give?
**A.** The pIC50 was 5.22.

**Q.** And the pIC50 (Cathepsin B)?
**A.** Its pIC50 is 4.72.

**Q.** What about the pIC50 (Cathepsin K) of the same molecule?
**A.** The pIC50 was 4.70.

**Q.** `O=C(NCCc1cccs1)N[C@H]1CCC(=O)N2CCC[C@@H](C(=O)N[C@@H](Cc3ccccc3)C(=O)CSc3nc4ccccc4s3)N2C1=O` [Example 221, 9-[(9S)-[[[2-(thien-2-yl)-ethyl]amino]carbonyl]amino]-N-[(2S)-1-phenyl-4-[(2-benzothiazolyl)thio]-3-oxo-2-butyl]-octahydro-6,10-dioxo-6H-(1S)-pyridazino[1,2-a][1,2]diazepine-1-carboxamide] was tested. Which pIC50 (Papain) did it give?
**A.** Its pIC50 is 5.15.

**Q.** And the pIC50 (Cathepsin K)?
**A.** Its pIC50 is 4.70.

**Q.** With `C=CCOC(=O)CC[C@H](NC(=O)[C@@H]1CCCN2C(=O)CC[C@H](NC(=O)Nc3ccc(Oc4ccccc4)cc3)C(=O)N12)C(=O)COC(=O)c1c(Cl)cccc1Cl` [Example 132, (2-propenyl)(4S)6-[(2,6-dichlorobenzoyl)oxy]-4-[[[(1S,9S)-9-[[[(4-phenoxyphenyl)amino]carbonyl]amino]-octahydro-6,10-dioxo-6H-pyridazino[1,2-a][1,2]diazepine-1-yl]carbonyl]amino]-5-oxo-hexanoate] as the molecule, how does the pIC50 (Papain) read?
**A.** The pIC50 was 5.22.

**Q.** And the pIC50 (Cathepsin B)?
**A.** The pIC50 was 5.70.

**Q.** And the pIC50 (Cathepsin K)?
**A.** The pIC50 was 4.70.

**Q.** What does the source list for `[N-]=[N+]=CC(=O)[C@H](Cc1ccccc1)NC(=O)[C@@H]1CCCN2C(=O)CC[C@H](NC(=O)Nc3ccc(Oc4ccccc4)cc3)C(=O)N12` [Example 161, 9-[(9S)[[(4-phenoxyphenyl)amino]carbonyl]amino]-N-((2S)-4-diazo-1-phenyl-3-oxo-2-butyl)-octahydro-6,10-dioxo-6H-(1S)-pyridazino[1,2-a][1,2]diazepine-1-carboxamide]?
**A.** pIC50 (Papain): 4.72; pIC50 (Cathepsin B): 5.05

**Q.** `[N-]=[N+]=CC(=O)[C@H](Cc1ccccc1)NC(=O)[C@@H]1CCCN2C(=O)CC[C@H](NS(=O)(=O)c3ccc(-c4ccon4)s3)C(=O)N12` [Example 166, 9-[(9S)-[[5-(isoxazol-3-yl)-2-thienyl]sulphonyl]amino]-N-((2S)-4-diazo-1-phenyl-3-oxo-2-butyl)-octahydro-6,10-dioxo-6H-(1S)-pyridazino[1,2-a][1,2]diazepine-1-carboxamide] was tested. Which pIC50 (Papain) did it give?
**A.** The pIC50 was 5.70.

**Q.** And the pIC50 (Cathepsin K)?
**A.** The pIC50 was 4.70.

**Q.** Which results are given for `C[C@H](NC(=O)[C@@H]1CCCN2C(=O)CC[C@H](NC(=O)NCCc3cccs3)C(=O)N12)C(=O)C=[N+]=[N-]` [Example 172, 9-[(9S)-[[[3-(thien-2-yl)-ethyl]amino]carbonyl]amino]-N-((2S)-4-diazo-3-oxo-2-butyl)-octahydro-6,10-dioxo-6H-(1S)-pyridazino[1,2-a][1,2]diazepine-1-carboxamide]?
**A.** Papain, percentage in parentheses beside IC50 value (% inhibition) (Papain): 10%; Cathepsin B, percentage in parentheses beside IC50 value (% inhibition) (Cathepsin B): 20 (20%); pIC50 (Cathepsin K): 4.70

**Q.** Which results are given for `CC(C)[C@H](NC(=O)[C@@H]1CCCN2C(=O)CC[C@H](NC(=O)NC3CCCCC3)C(=O)N12)C(=O)CSc1nc2ccccc2s1` [Example 382, 9-[(9S)-[(cyclohexylamino)carbonyl]amino]-N-[(3S)-1-[(benzothiazol-2-yl)thio]-4-methyl-2-oxo-3-pentyl]-octahydro-6,10-dioxo-6H-(1S)-pyridazino[1,2-a][1,2]diazepine-1-carboxamide]?
**A.** pIC50 (Papain): 5.05; pIC50 (Cathepsin K): 4.70

**Q.** What does the source list for `C=CCOC(=O)CC[C@H](NC(=O)[C@@H]1CCCN2C(=O)CC[C@H](NC(=O)Nc3ccc(Oc4ccccc4)cc3)C(=O)N12)C(=O)COC(=O)c1ccncc1` [Example 131, (2-propenyl)(4S)6-[[(4-pyridinyl)carbonyl]oxy]-4-[[[(1S,9S)-9-[[[(4-phenoxyphenyl)amino]carbonyl]amino]-octahydro-6,10-dioxo-6H-pyridazino[1,2-a][1,2]diazepine-1-yl]carbonyl]amino]-5-oxo-hexanoate]?
**A.** pIC50 (Papain): 5.05; pIC50 (Cathepsin K): 5.15

**Q.** With `CC(C)(C)Oc1ccc(C[C@H](NC(=O)[C@@H]2CCCN3C(=O)CC[C@H](NC(=O)Nc4ccc(Oc5ccccc5)cc4)C(=O)N23)C(=O)C=[N+]=[N-])cc1` [Example 54, 9-[(9S)-[[(4-phenoxyphenyl)amino]carbonyl]amino]-N-[(2S)-4-diazo-1-[4-[(1,1-dimethyl)ethoxy]phenyl]-3-oxo-2-butyl]-6H-(1S)-pyridazino[1,2-a][1,2]diazepine-1-carboxamide] as the molecule, how does the pIC50 (Papain) read?
**A.** Its pIC50 is 4.82.

**Q.** What about the “Cathepsin B, percentage in parentheses beside IC50 value (% inhibition)” value (Cathepsin B) of the same molecule?
**A.** Its value is 30%.

**Q.** With `O=C(Nc1ccc(Oc2ccccc2)cc1)N[C@H]1CCC(=O)N2CCC[C@@H](C(=O)N[C@@H](Cc3ccccc3)C(=O)CSc3nnnn3-c3ccccc3)N2C1=O` [Example 211, 9-[(9S)-[[(4-phenoxyphenyl)amino]carbonyl]amino]-N-[(2S)-1-phenyl-4-[(1-phenyl-1H-tetrazol-5-yl)thio]-3-oxo-2-butyl]-octahydro-6,10-dioxo-6H-(1S)-pyridazino[1,2-a][1,2]diazepine-1-carboxamide] as the molecule, how does the pIC50 (Papain) read?
**A.** Its pIC50 is 5.22.

**Q.** What about the pIC50 (Cathepsin K) of the same molecule?
**A.** The pIC50 was 4.70.
